Laboratory results as given in ChEMBL document CHEMBL1124317, “Rationale for the synthesis and preliminary biological evaluation of highly active new antitumor nitrosoureido sugars” (J Med Chem, 1989).

Legend:
Mus musculus [1] = test: The number of B16 melanocarcinoma mice survived after 30 days with compound in olive oil injected by a dose of 20 mg/kg intraperitoneally; 13/20; format: functional; settings: route intraperitoneal
Mus musculus [2] = organism: Mus musculus; test: Median survival time of the non surviving mice; there are two deaths on day 27, one death on day 29, and two deaths on day 41; format: functional, organism-based
Mus musculus [3] = test: The number of Lewis lung mice survived after 60 days with compound in olive oil injected by a dose of 20 mg/kg intraperitoneally; 15/20; format: functional; settings: route intraperitoneal
Mus musculus [4] = test: Ratio of mice died to that of mice treated with 20 mg/kg of compound in olive oil intraperitoneally with Lewis lung; 0/20; format: functional; settings: route intraperitoneal
Mus musculus [5] = test: Ratio of mice died to that of mice treated with 20 mg/kg of compound in olive oil intraperitoneally with B16 Melanocarcinoma; 0/20; format: functional; settings: route intraperitoneal
Mus musculus [6] = test: The number of Lewis lung mice survived after 30 days with compound in olive oil injected by a dose of 20 mg/kg intraperitoneally; 18/20; format: functional; settings: route intraperitoneal
Mus musculus [7] = test: The number of L1210 Leukemia mice survived after 30 days with compound in olive oil injected by a dose of 20 mg/kg intraperitoneally; 12/15; format: functional; settings: route intraperitoneal
Mus musculus [8] = test: The number of L1210 Leukemia mice survived after 60 days with compound in olive oil injected by a dose of 20 mg/kg intraperitoneally; 10/15; format: functional; settings: route intraperitoneal
Mus musculus [9] = test: Anti tumor activity in olive oil when treated to mice with B16 melanocarcinoma with 20 mg/kg dose of compound intraperitoneally was expressed as percent of treated to control (T/C %); format: functional; settings: route intraperitoneal
Mus musculus [10] = test: Ratio of mice died to that of mice treated with 20 mg/kg of compound in olive oil intraperitoneally with L1210 leukemia tumor; 0/15; format: functional; settings: route intraperitoneal
Mus musculus [11] = test: Median survival time of the non surviving mice; treated with 20 mg/kg of compound in olive oil to mice with B16 Melanocarcinoma; 14-55; format: functional
Mus musculus [12] = test: The number of B16 melanocarcinoma mice survived after 60 days with compound in olive oil injected by a dose of 20 mg/kg intraperitoneally; 2/20; format: functional; settings: route intraperitoneal

Q: With COC1CC(NC(=O)N(CCCl)N=O)C(O)C(CNC(=O)N(CCCl)N=O)O1 (configuration not stated) as the compound, how does the Survivals (Mus musculus [1]) read?
A: 13

Q: And the Median survival time (Mus musculus [2])?
A: there are two deaths on day 27, one death on day 29, and two deaths on day 41

Q: And the Survivals (Mus musculus [3])?
A: 15

Q: What about the Ratio (Mus musculus [4]) of the same compound?
A: 0

Q: And the Ratio (Mus musculus [5])?
A: 0

Q: What about the Survivals (Mus musculus [6]) of the same compound?
A: 18

Q: What about the Survivals (Mus musculus [7]) of the same compound?
A: 12

Q: And the Survivals (Mus musculus [8])?
A: 10

Q: What about the T/C (Mus musculus [9]) of the same compound?
A: 225%

Q: And the Ratio (Mus musculus [10])?
A: 0

Q: And the Median survival time (Mus musculus [11])?
A: 31.37

Q: And the Survivals (Mus musculus [12])?
A: 2
